Entries after “also recorded” stand apart in the source; their conditions may differ. Read-outs that look alike come from different tables or passages of the source. Marks after values point to notes of the source that are not given here.
Columns and labels:
[1] = DPPH free radical scavenging capacity; settings: concentrations 15, 30, 75 μg/mL, mean ± RSD
Description: DPPH, a stable free radical, was used to determine the free radical-scavenging activity of the extracts. Briefly, a 0.32 mM DPPH solution in MeOH were prepared, and 180 μL of this solution was mixed with 30 μL of each sample at concentrations of 0.05–1.0 mg/mL in DMSO. After 20 min of incubation in the dark, the decrease in the absorbance of the solution was measured at 570 nm on a microplate reader (EL800 Universal Microplate reader, Bio-Tek instruments, Winooski, VT, USA). DPPH radical-scavenging activity was expressed as the percentage inhibition (%) of DPPH in this assay system and was calculated as (1 − B/A) × 100, where A and B are the activities of DPPH without and with the test material, respectively.

[2] = biological target: T1, rat lens aldose reductase (RLAR) (Rattus norvegicus, UniProt P07943); settings: cited from earlier work; for IC50: compounds isolated from other plant sources, read-out: RLAR inhibitory activity (reported data)
T1 construct: The supernatant was collected and used as RLAR; from tissue; host or cells: lens of Sprague-Dawley rats (supernatant of the homogenate after 10,000g)

[3] = tested on: sorbitol accumulation in rat lens; test: Lens culture and intracellular sorbitol measurement (ex vivo, high glucose); assay type: cell-based; settings: for Sorbitol content (mg)/lens wet weight (g): rat lens cultured 6 d in medium with 30 mM glucose, control by G 1.47 ± 0.02; for inhibition at 5 µg/mL: read-out: Inhibition (%) of sorbitol accumulation in rat lens
Description: Lens isolated from 10-week old Sprague-Dawley rats were cultured for 6 d in TC-199 medium containing 15% fetal bovine serum, 100 units/mL penicillin, and 0.1 mg/mL streptomycin, under sterile conditions and an atmosphere of 5% CO2 and 95% air at 37°C. Samples were dissolved in DMSO. The lens were divided into three groups (each group n = 3) and cultured in medium containing 30 mM glucose and RLAR-active compounds. Each lens was placed in a well containing 2.0 mL medium. Sorbitol was identified by HPLC after its derivatization by reaction with benzoic acid to form a fluorescent compound [25].

[4] = tested on: advanced glycation end products (AGEs); test: Methylglyoxal-bovine serum albumin assay investigating AGE formation; assay type: biochemical; settings: methylglyoxal-BSA, 37°C 24 h, mean ± RSD
Description: Bovine serum albumin (50 mg/mL) was incubated with methylglyoxal (100 mM) in sodium phosphate buffer (0.1 M, pH 7.4) in the presence of various concentrations of the compounds (including a control) at 37°C for 24 h. Then the fluorescent intensity was measured at an excitation wavelength of 355 nm and an emission wavelength of 460 nm with a luminescence spectrometer LS50B (PerkinElmer Ltd., Buckinghamshire, England). […] All reagents and samples were sterilized by filtration through […] membrane filters.

[5] = biological target: T1, rat lens aldose reductase (RLAR); test: Determination of RLAR inhibition (NADPH absorbance decrease at 340 nm, DL-glyceraldehyde substrate); assay type: biochemical; settings: crude RLAR homogenate; inhibitor concentrations 1, 5, 10 μg/mL; mean ± RSD; NI: no inhibition
Description: Crude RLAR was prepared as follows: lenses were removed from Sprague-Dawley rats (weighing 250–280 g) and frozen at −70°C until use. Noncataractous transparent lenses were pooled and a homogenate was prepared in 0.1 M phosphate buffered saline (pH 6.2). The RLAR homogenate was then centrifuged at 10,000g for 20 min at 4°C in a refrigerated centrifuge. The supernatant was collected and used as RLAR [22].
A total of 531 μL of 0.1 M potassium buffer (pH 7.0), 90 μL of NADPH solution (1.6 mM in potassium buffer), 90 μL of RLAR homogenate (6.5 U/mg), 90 μL of ammonium sulfate solution (4 M in potassium buffer), and 90 μL of DL-glyceraldehyde (25 mM in potassium buffer) were mixed with 9 μL of different concentrations of samples (1–0.1 mg/mL in DMSO, less than 1% in total mixture) in a cuvette, and the activity of RLAR was assessed spectrophotometrically by measuring the decrease in NADPH absorbance at 340 nm for 3 minutes using a spectrophotometer (SECOMAM, Ales Cedex, France).

[6] = sample 5 μg/mL, mean ± SD (n = 3)
[7] = rat lens cultured in 30 mM glucose, sample 5 μg/mL, mean ± SD (n = 3)
[8] = concentrations 10, 25, 50 μg/mL, NI: no inhibition

| SMILES | IC50 [4, 8] [µM] | Sorbitol content (mg)/lens wet weight (g) [3, 6] | inhibition at 5 µg/mL [3, 7] [%] | also measured |
| --- | --- | --- | --- | --- |
| O=C1O[C@H]([C@@H](O)CO)C(O)=C1O [L-Ascorbic acid, reference compound] | – | – | – | IC50 DPPH ([1]; three independent experiments in duplicate): 6.60 ± 0.33^a μg/mL |
| O=c1cc(-c2ccc(O)c(O)c2)oc2cc(O)cc(O[C@@H]3O[C@H](CO)[C@@H](O)[C@H](O)[C@H]3O)c12 [luteolin-5-O-β-D-glucopyranoside, reference compound] | – | – | – | Inhibitory activity on RLAR relative to its precursor (luteolin) ([2]; isolated from Cirsium maackii): ~1.58 times |
| O=c1cc(-c2ccc(O)c(O)c2)oc2cc(O)cc(O)c12 [Compound 10, luteolin] | – | 0.12 ± 0.01^a mg/g | 91.8 ± 6.87 | – |
| O=C(C=Cc1ccc(O)c(O)c1)OC1CC(O)(C(=O)O)CC(OC(=O)C=Cc2ccc(O)c(O)c2)C1O (stereo not drawn) [Compound 7, 3,5-O-di-caffeoylquinic acid] | > 97 | 0.20 ± 0.01^a mg/g | – | inhibition at 5 µg/mL ([3]; Rattus norvegicus): 86.4 ± 4.28% |
| O=C(O)[C@H]1O[C@@H](Oc2cc(O)c3c(=O)cc(-c4ccc(O)c(O)c4)oc3c2)[C@H](O)[C@@H](O)[C@@H]1O [Compound 6, luteolin-7-O-β-D-glucuronide] | – | 0.12 ± 0.01^a mg/g | 91.8 ± 6.74 | – |
| O=C(O)[C@H]1O[C@@H](Oc2cc(O)c3c(=O)cc(-c4ccc(O)cc4)oc3c2)[C@H](O)[C@@H](O)[C@@H]1O [Compound 5, apigenin-7-O-β-D-glucuronide] | > 97 | 0.29 ± 0.01^b mg/g | 80.3 ± 2.78 | – |
| O=c1c(O)c(-c2ccc(O)c(O)c2)oc2cc(O)cc(O)c12 [Quercetin, quercetin, reference compound] | – | 0.21 ± 0.01^a mg/g | 85.7 ± 3.23 | – |
| O=c1cc(-c2ccc(O)cc2)oc2cc(O)cc(O)c12 [Compound 9, apigenin] | > 97 | 0.19 ± 0.01^a mg/g | 87.1 ± 4.48 | – |
| N=C(N)NN [Aminoguanidine, aminoguanidine, reference compound] | – | – | – | IC50 AGEs ([4]; concentrations 20, 100, 200 μg/mL): 109.10 ± 3.47^a μg/mL |

The next lines start with results.

| IC50 [4, 8] [µM] | SMILES | Sorbitol content (mg)/lens wet weight (g) [3, 6] | inhibition at 5 µg/mL [3, 7] [%] | also measured |
| --- | --- | --- | --- | --- |
| > 97 | O=c1cc(-c2ccc(O)cc2)oc2cc(O[C@@H]3O[C@H](CO)[C@@H](O)[C@H](O)[C@H]3O)cc(O)c12 [Compound 1, apigenin-7-O-β-D-glucoside] | 0.72 ± 0.01^c mg/g | 51 ± 1.68 | IC50 ([1]; NI: no inhibition): > 250 µM; IC50 [2]: 23 µM |
| > 97 | O=c1cc(-c2ccc(O)c(O)c2)oc2cc(O[C@@H]3O[C@H](CO)[C@@H](O)[C@H](O)[C@H]3O)cc(O)c12 [Compound 2, luteolin-7-O-β-D-glucoside] | 0.07 ± 0.01^a mg/g | 95.2 ± 8.18 | IC50 [2]: 0.99 µM |
| > 97 | COc1cc2oc(-c3ccc(O)cc3)c(OC)c(=O)c2c(O)c1OC [Compound 3, penduletin] | – | – | IC50 [5]: > 28 µM; IC50 RLAR [5]: inactive; also recorded: did not show inhibitory activities; IC50 AGEs [4, 8]: did not show inhibitory activities; IC50 ([1]; NI: no inhibition): > 208 µM; IC50 DPPH ([1]; NI: no inhibition): almost no effect |
| > 97 | O=c1cc(-c2ccc(O)cc2)oc2cc(O)c(O)c(O)c12 [Compound 8, 6-hydroxyapigenin] | – | – | IC50 [5]: > 28 µM; IC50 RLAR [5]: inactive; also recorded: did not show inhibitory activities; IC50 AGEs [4, 8]: did not show inhibitory activities; IC50 ([1]; NI: no inhibition): > 208 µM; IC50 DPPH ([1]; NI: no inhibition): almost no effect |

— article PMC5914092, “Evaluation of Aldose Reductase, Protein Glycation, and Antioxidant Inhibitory Activities of Bioactive Flavonoids in Matricaria recutita L. and Their Structure-Activity Relationship” (Journal of Diabetes Research, 2018)
